Substitutions are numbered along the chain they refer to.
Columns and labels:
Test in all cases: Relative rates of hydrolysis of poly-, oligosaccharides and aryl-glycosides
Assay type in all cases: biochemical
[1] = molecular target: T1, HvExoI W286F/W434A mutant (Hordeum vulgare, UniProt Q9XEI3, W311F/W459A); details: substance is the substrate, nd = activity not detected
T1 sequence (Q9XEI3 26-630 W311F/W459A): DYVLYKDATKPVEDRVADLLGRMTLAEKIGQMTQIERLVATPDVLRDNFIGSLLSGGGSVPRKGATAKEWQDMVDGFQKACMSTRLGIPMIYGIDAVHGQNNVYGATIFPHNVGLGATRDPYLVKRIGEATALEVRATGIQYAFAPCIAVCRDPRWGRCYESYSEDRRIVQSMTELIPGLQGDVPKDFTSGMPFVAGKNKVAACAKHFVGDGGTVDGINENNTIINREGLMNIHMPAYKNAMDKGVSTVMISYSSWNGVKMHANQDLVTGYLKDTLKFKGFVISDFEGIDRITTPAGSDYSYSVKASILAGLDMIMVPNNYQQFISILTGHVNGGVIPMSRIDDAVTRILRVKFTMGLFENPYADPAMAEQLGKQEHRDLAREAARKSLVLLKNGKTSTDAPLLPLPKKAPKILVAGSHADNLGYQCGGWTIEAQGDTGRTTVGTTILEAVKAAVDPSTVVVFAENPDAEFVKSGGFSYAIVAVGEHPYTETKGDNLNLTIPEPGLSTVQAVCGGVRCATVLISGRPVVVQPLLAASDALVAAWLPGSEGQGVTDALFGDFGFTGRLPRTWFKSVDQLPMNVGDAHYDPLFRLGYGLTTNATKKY
Description: (§1) Dependency of activities of WT and mutant HvExoI on pH (McIlvaine buffers in the pH range of 3.5–8.5 at 30 °C) and temperature (100 mM sodium acetate buffer, pH 5.25, temperature range 0–80 °C, 15 min incubations) were determined using 0.2% (w/v) 4NP-Glc[21],[59]. Relative rates of hydrolysis of β-linked poly-, oligosaccharides, and aryl-glucosides were determined using near-homogenous HvExoI at 50 pmoles. […] Kinetic parameters were calculated from the analyses of Michaelis-Menten plots with Grafit 7.0.3[62] and processed by a proportional weighted fit, using nonlinear regression. The relative rates of hydrolysis, kinetic, and inhibition data were rounded to one or two decimal points (Supplementary Tables 2–4).

[2] = molecular target: T2, HvExoI W286F/W434F mutant (Hordeum vulgare, UniProt Q9XEI3, W311F/W459F); details: substance is the substrate, nd = activity not detected
T2 sequence (Q9XEI3 26-630 W311F/W459F): T1 sequence (Q9XEI3 26-630 W311F/W459A) with A434F
Description: as §1

HvExoI W286Y mutant = molecular target: T3, HvExoI W286Y mutant (Hordeum vulgare, UniProt Q9XEI3, W311Y); details: substance is the substrate, nd = activity not detected
T3 sequence (Q9XEI3 26-630 W311Y): T1 sequence (Q9XEI3 26-630 W311F/W459A) with F286Y, A434W
Description: as §1

HvExoI W434Y mutant = molecular target: T4, HvExoI W434Y mutant (Hordeum vulgare, UniProt Q9XEI3, W459Y); details: substance is the substrate, nd = activity not detected
T4 sequence (Q9XEI3 26-630 W459Y): T1 sequence (Q9XEI3 26-630 W311F/W459A) with F286W, A434Y
Description: as §1

WT HvExoI = WT HvExoI (Hordeum vulgare, UniProt Q9XEI3); details: substance is the substrate, HvExoI at 50 pmoles, nd = activity not detected
Sequence of WT HvExoI (Q9XEI3 entry or part of it): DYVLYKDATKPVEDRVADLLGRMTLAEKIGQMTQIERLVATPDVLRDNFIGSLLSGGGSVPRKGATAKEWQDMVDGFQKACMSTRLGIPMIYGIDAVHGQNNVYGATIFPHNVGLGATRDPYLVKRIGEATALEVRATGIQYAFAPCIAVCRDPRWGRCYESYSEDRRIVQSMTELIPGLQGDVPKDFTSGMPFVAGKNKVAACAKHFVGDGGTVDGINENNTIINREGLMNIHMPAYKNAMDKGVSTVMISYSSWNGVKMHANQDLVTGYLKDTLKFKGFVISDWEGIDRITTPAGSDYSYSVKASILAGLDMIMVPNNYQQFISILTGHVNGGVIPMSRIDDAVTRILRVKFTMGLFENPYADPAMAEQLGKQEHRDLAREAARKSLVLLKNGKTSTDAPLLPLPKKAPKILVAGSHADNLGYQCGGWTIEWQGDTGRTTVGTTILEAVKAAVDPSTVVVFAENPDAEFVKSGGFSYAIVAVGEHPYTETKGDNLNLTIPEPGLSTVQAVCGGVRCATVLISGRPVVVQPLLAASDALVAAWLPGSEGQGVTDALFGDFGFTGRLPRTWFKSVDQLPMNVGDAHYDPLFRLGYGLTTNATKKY
Description: as §1

## OC[C@H]1O[C@@H](O[C@@H]2[C@@H](O)[C@H](O[C@@H]3[C@@H](O)[C@H](O[C@@H]4[C@@H](O)[C@H](O[C@@H]5[C@@H](O)[C@H](O[C@H]6[C@H](O)[C@@H](CO)OC(O)[C@@H]6O)O[C@H](CO)[C@H]5O)O[C@H](CO)[C@H]4O)O[C@H](CO)[C@H]3O)O[C@H](CO)[C@H]2O)[C@H](O)[C@@H](O)[C@@H]1O (stereo partly shown) [Laminarihexaose]
[1]
  Activity (relative rate of hydrolysis): 0.1 ± 0.004 μmole/min per mg protein
[2]
  Activity (relative rate of hydrolysis): 0.5 ± 0.1 μmole/min per mg protein
HvExoI W286Y mutant
  Activity (relative rate of hydrolysis): 15.8 ± 0.1 μmole/min per mg protein
HvExoI W434Y mutant
  Activity (relative rate of hydrolysis): 1.4 ± 0.1 μmole/min per mg protein
WT HvExoI
  Activity (relative rate of hydrolysis): 12.2 ± 0.1 μmole/min per mg protein

## OC[C@H]1O[C@@H](O[C@@H]2[C@@H](O)[C@H](O[C@@H]3[C@@H](O)[C@H](O[C@@H]4[C@@H](O)[C@H](O[C@@H]5[C@@H](O)[C@H](O)O[C@H](CO)[C@H]5O)O[C@H](CO)[C@H]4O)O[C@H](CO)[C@H]3O)O[C@H](CO)[C@H]2O)[C@H](O)[C@@H](O)[C@@H]1O [Laminaripentaose]
[1]
  Activity (relative rate of hydrolysis): 0.2 ± 0.02 μmole/min per mg protein
[2]
  Activity (relative rate of hydrolysis): 0.4 ± 0.04 μmole/min per mg protein
HvExoI W286Y mutant
  Activity (relative rate of hydrolysis): 14.8 ± 0.4 μmole/min per mg protein
HvExoI W434Y mutant
  Activity (relative rate of hydrolysis): 1.5 ± 0.1 μmole/min per mg protein
WT HvExoI
  Activity (relative rate of hydrolysis): 11.7 ± 0.5 μmole/min per mg protein

## OC[C@H]1O[C@@H](O[C@@H]2[C@@H](O)[C@H](O[C@H]3[C@H](O)[C@@H](CO)OC(O)[C@@H]3O)O[C@H](CO)[C@H]2O)[C@H](O)[C@@H](O)[C@@H]1O (stereo partly shown) [Laminaritriose]
[1]
  Activity (relative rate of hydrolysis): 0.1 ± 0.002 μmole/min per mg protein
[2]
  Activity (relative rate of hydrolysis): 0.5 ± 0.04 μmole/min per mg protein
HvExoI W286Y mutant
  Activity (relative rate of hydrolysis): 14.1 ± 0.4 μmole/min per mg protein
HvExoI W434Y mutant
  Activity (relative rate of hydrolysis): 1.4 ± 0.2 μmole/min per mg protein
WT HvExoI
  Activity (relative rate of hydrolysis): 12.4 ± 0.3 μmole/min per mg protein

## OC[C@H]1O[C@@H](O[C@H]2[C@H](O)[C@@H](O)[C@H](O[C@H]3[C@H](O)[C@@H](O)[C@H](O[C@H]4[C@H](O)[C@@H](O)C(O)O[C@@H]4CO)O[C@@H]3CO)O[C@@H]2CO)[C@H](O)[C@@H](O)[C@@H]1O (stereo partly shown) [Cellotetraose]
[1]
  Activity (relative rate of hydrolysis): 0.1 ± 0.01 μmole/min per mg protein
[2]
  Activity (relative rate of hydrolysis): 0.02 ± 0.001 μmole/min per mg protein
HvExoI W286Y mutant
  Activity (relative rate of hydrolysis): 6.3 ± 1.1 μmole/min per mg protein
HvExoI W434Y mutant
  Activity (relative rate of hydrolysis): 0.1 ± 0.01 μmole/min per mg protein
WT HvExoI
  Activity (relative rate of hydrolysis): 8.5 ± 0.7 μmole/min per mg protein

## OC[C@H]1O[C@@H](O[C@H]2C(O)O[C@H](CO)[C@@H](O)[C@@H]2O)[C@H](O)[C@@H](O)[C@@H]1O (stereo partly shown) [Sophorose]
[1]
  Activity (relative rate of hydrolysis): 0.02 ± 0.001 μmole/min per mg protein
[2]
  Activity (relative rate of hydrolysis): 0.3 ± 0.03 μmole/min per mg protein
HvExoI W286Y mutant
  Activity (relative rate of hydrolysis): 12.5 ± 0.2 μmole/min per mg protein
HvExoI W434Y mutant
  Activity (relative rate of hydrolysis): 0.8 ± 0.1 μmole/min per mg protein
WT HvExoI
  Activity (relative rate of hydrolysis): 6.0 ± 0.1 μmole/min per mg protein

## OC[C@H]1O[C@@H](O[C@H]2[C@H](O)[C@@H](O)[C@H](O[C@H]3[C@H](O)[C@@H](O)[C@H](O[C@H]4[C@H](O)[C@@H](O)[C@H](O[C@H]5[C@H](O)[C@@H](O)[C@H](O[C@H]6[C@H](O)[C@@H](O)C(O)O[C@@H]6CO)O[C@@H]5CO)O[C@@H]4CO)O[C@@H]3CO)O[C@@H]2CO)[C@H](O)[C@@H](O)[C@@H]1O (stereo partly shown) [Cellohexaose]
[1]
  Activity (relative rate of hydrolysis): 0.01 ± 0.0002 μmole/min per mg protein
[2]
  Activity (relative rate of hydrolysis): 0.01 ± 0.001 μmole/min per mg protein
HvExoI W286Y mutant
  Activity (relative rate of hydrolysis): 7.0 ± 0.1 μmole/min per mg protein
HvExoI W434Y mutant
  Activity (relative rate of hydrolysis): 0.1 ± 0.01 μmole/min per mg protein
WT HvExoI
  Activity (relative rate of hydrolysis): 9.1 ± 0.2 μmole/min per mg protein

## laminarin
[1]
  Activity (relative rate of hydrolysis): 0.1 ± 0.003 μmole/min per mg protein
[2]
  Activity (relative rate of hydrolysis): 0.2 ± 0.01 μmole/min per mg protein
HvExoI W286Y mutant
  Activity (relative rate of hydrolysis): 14.2 ± 1.3 μmole/min per mg protein
HvExoI W434Y mutant
  Activity (relative rate of hydrolysis): 0.7 ± 0.03 μmole/min per mg protein
WT HvExoI
  Activity (relative rate of hydrolysis): 54.4 ± 0.5 μmole/min per mg protein

## O=[N+]([O-])c1ccc(O[C@@H]2O[C@H](CO)[C@@H](O)[C@H](O)[C@H]2O)cc1 [4NP-Glc, 4-nitrophenyl β-D-glucopyranoside]
[1]
  Activity (relative rate of hydrolysis): 1.8 ± 0.03 μmole/min per mg protein
[2]
  Activity (relative rate of hydrolysis): 0.5 ± 0.02 μmole/min per mg protein
HvExoI W286Y mutant
  Activity (relative rate of hydrolysis): 19.6 ± 0.01 μmole/min per mg protein
HvExoI W434Y mutant
  Activity (relative rate of hydrolysis): 1.2 ± 0.1 μmole/min per mg protein
WT HvExoI
  Activity (relative rate of hydrolysis): 12.4 ± 0.8 μmole/min per mg protein

From article PMC9508125, “The evolutionary advantage of an aromatic clamp in plant family 3 glycoside exo-hydrolases” (Nature Communications, 2022)
